Assays:
[1] = biological target: T1, TDO (A172 human glioblastoma cells) (Homo sapiens, UniProt P48775); test: A172 Kynurenine cell based assay; conditions: 500 μM L-tryptophan, 48 hours, kynurenine by Erhlich's reagent
T1 construct: This assay utilised cancer cells which expressed either TDO or IDO; endogenous in cells; host or cells: A172 human glioblastoma cells
Outline: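 Kynurenine released into the supernatant was quantified by absorbance at 490 nm after 5 min with Erhlich's reagent. A172 cells were seeded at 30,000/well and exposed to test compound for 48 hours at 37° C. in phenol red-free RPMI containing 500 μM L-tryptophan, 10% FCS and 2 mM L-glutamine.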

[2] = biological target: T2, IDO (SKOV3 human ovarian adenocarcinoma cells, IFN-γ induced) (Homo sapiens, UniProt P14902); test: SKOV3 Kynurenine cell based assay; conditions: IDO induced by 500 ng/ml IFN-γ, 500 μM L-tryptophan, 48 hours
T2 construct: IDO expression was induced in the SKOV3 cells by the addition of 500 ng/ml IFN-γ; endogenous in cells; host or cells: SKOV3 human ovarian adenocarcinoma cells, induced with IFN-γ
T2 sequence (P14902 whole entry): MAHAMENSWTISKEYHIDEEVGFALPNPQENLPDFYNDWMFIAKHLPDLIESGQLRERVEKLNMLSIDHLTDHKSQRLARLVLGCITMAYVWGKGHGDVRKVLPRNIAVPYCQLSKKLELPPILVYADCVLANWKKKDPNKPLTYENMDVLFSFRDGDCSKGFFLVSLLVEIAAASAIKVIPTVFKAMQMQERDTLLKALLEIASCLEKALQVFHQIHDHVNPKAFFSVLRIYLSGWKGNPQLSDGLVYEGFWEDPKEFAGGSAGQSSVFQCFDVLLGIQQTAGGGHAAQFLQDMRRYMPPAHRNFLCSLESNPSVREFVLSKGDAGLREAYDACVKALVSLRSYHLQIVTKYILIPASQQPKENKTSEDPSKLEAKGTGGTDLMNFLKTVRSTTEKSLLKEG
Outline: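 Kynurenine in the supernatant, detected by Ehrlich's reagent, served as read-out after 48 h at 37° C with or without test compound. SKOV3 cells (40,000/well) were grown in phenol red-free RPMI, 10% FCS, 2 mM L-glutamine, 500 μM L-tryptophan, with 500 ng/ml IFN-γ to induce IDO.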

[3] = biological target: Recombinant human TDO (Homo sapiens, UniProt P48775); test: hTDO biochemical coupled assay; conditions: 330 μM L-tryptophan, coupled with kynurenine formamidase
Chain of Recombinant human TDO (P48775 whole entry): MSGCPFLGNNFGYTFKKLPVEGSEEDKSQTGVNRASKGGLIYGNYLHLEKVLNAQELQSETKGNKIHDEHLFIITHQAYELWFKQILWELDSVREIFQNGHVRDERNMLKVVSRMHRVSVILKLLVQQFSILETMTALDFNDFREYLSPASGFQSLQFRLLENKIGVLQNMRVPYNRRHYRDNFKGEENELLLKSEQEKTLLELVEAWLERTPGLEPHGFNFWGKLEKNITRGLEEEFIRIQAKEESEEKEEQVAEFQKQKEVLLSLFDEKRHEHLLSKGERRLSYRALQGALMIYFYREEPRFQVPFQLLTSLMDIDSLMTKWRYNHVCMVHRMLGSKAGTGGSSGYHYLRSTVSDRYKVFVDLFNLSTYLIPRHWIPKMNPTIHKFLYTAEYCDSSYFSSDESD
Protocol: Exemplary compounds of the invention were prepared, and tested to determine their effect as TDO and/or IDO inhibitors. Two different assays were employed: 1. a cell-based assay for detecting the effect of test compounds on kynurenine production in two different cancer cell types. This assay utilised cancer cells which expressed either TDO or IDO and as such was used as a means of testing compound activity at these two enzymes in a cell-based context. 2. a TDO and IDO biochemical coupled assay which utilised recombinantly produced and purified TDO and IDO enzymes in combination with the enzyme formamidase. This coupled enzyme system allowed conversion of N-formylkynurenine produced by TDO or IDO activity to kynurenine which was then quantified by fluorescence following addition of Erhlich's Reagent The protocols for these are set out below.
Recombinant human IDO or TDO was incubated in 50 mM KPO4 (pH 7.0), 0.5 mM EGTA, 0.5 mM EDTA, 0.05% Triton™ X100, 20 mM ascorbate, 10 μM methylene blue, 500 U/ml catalase, 50 μg/ml KynB (kynurenine formamidase). TDO assays were carried out in the presence of 330 μM L-tryptophan, while IDO assays had the addition of 45 μM L-tryptophan. After incubation for 17 minutes at room temperature the reactions were stopped by the addition of Erhlich's reagent and incubated at room temperature for 5 minutes before the fluorescence was read (Ex475, Em530).

[4] = biological target: Recombinant human IDO (Homo sapiens, UniProt P14902); test: hIDO biochemical coupled assay; conditions: 45 μM L-tryptophan, coupled with kynurenine formamidase
Chain of Recombinant human IDO (P14902 whole entry): as the sequence (P14902 whole entry) above
Outline: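 Recombinant human IDO incubated in 50 mM KPO4 (pH 7.0), 0.5 mM EGTA, 0.5 mM EDTA, 0.05% Triton X100, 20 mM ascorbate, 10 μM methylene blue, 500 U/ml catalase and 50 μg/ml kynurenine formamidase. N-formylkynurenine converted to kynurenine, quantified by fluorescence after Ehrlich's reagent.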

T1 sequence (P48775 whole entry): as the sequence (P48775 whole entry) above

SMILES	A172 Kynurenine cell based assay pIC50 [1]	SKOV3 Kynurenine cell based assay pIC50 [2]	hTDO biochemical assay pIC50 [3]	hIDO biocehmical assay pIC50 [4]
Cc1ccc2[nH]cc(C3CCN(S(=O)(=O)c4cccc(Cl)c4C)CC3)c2c1 [Compound 32]	+− (+− = pIC50 <4.00)	+ (+ = pIC50 4.00-4.99)	+− (+− = pIC50 <4.00)	+− (+− = pIC50 <4.00)
COCCS(=O)(=O)N1CCC(c2c[nH]c3ccccc23)CC1 [Compound 74]	++ (++ = pIC50 5.00-5.99)	+− (+− = pIC50 <4.00)	+ (+ = pIC50 4.00-4.99)	+− (+− = pIC50 <4.00)
COc1cccc2c(C3=CCN(S(C)(=O)=O)CC3)c[nH]c12 [Compound 93]	+− (+− = pIC50 <4.00)	+− (+− = pIC50 <4.00)	+ (+ = pIC50 4.00-4.99)	+− (+− = pIC50 <4.00)
O=S(=O)(C1CC1)N1CCC(c2c[nH]c3ccccc23)CC1 [Compound 75]	++ (++ = pIC50 5.00-5.99)	+− (+− = pIC50 <4.00)	+ (+ = pIC50 4.00-4.99)	+− (+− = pIC50 <4.00)
Cc1ccc2[nH]cc(C3CCN(S(=O)(=O)c4ccc(Br)cc4OC(F)(F)F)CC3)c2c1 [Compound 34]	+ (+ = pIC50 4.00-4.99)	+ (+ = pIC50 4.00-4.99)	+− (+− = pIC50 <4.00)	+− (+− = pIC50 <4.00)
O=C(CO)N1CCC(c2c[nH]c3ccccc23)CC1 [Compound 67]	+ (+ = pIC50 4.00-4.99)	+− (+− = pIC50 <4.00)	+− (+− = pIC50 <4.00)	+− (+− = pIC50 <4.00)
CS(=O)(=O)N1CCC(c2c[nH]c3cccc(F)c23)CC1 [Compound 95]	+ (+ = pIC50 4.00-4.99)	+− (+− = pIC50 <4.00)	+− (+− = pIC50 <4.00)	+− (+− = pIC50 <4.00)
Cc1[nH]c2ccccc2c1C1CCN(S(=O)(=O)c2ccc([N+](=O)[O-])cc2)CC1 [Compound 25]	+− (+− = pIC50 <4.00)	+ (+ = pIC50 4.00-4.99)	+− (+− = pIC50 <4.00)	+− (+− = pIC50 <4.00)
Cc1cccc2c(C3CCN(C(=O)c4cc(Cl)cnc4Cl)CC3)c[nH]c12 [Compound 28]	+− (+− = pIC50 <4.00)	+ (+ = pIC50 4.00-4.99)	+− (+− = pIC50 <4.00)	+− (+− = pIC50 <4.00)
CC(C)S(=O)(=O)N1CCC(c2c[nH]c3ccccc23)CC1 [Compound 73]	+ (+ = pIC50 4.00-4.99)	+− (+− = pIC50 <4.00)	+− (+− = pIC50 <4.00)	+− (+− = pIC50 <4.00)
CS(=O)(=O)N1CC=C(c2c[nH]c3cc(F)ccc23)CC1 [Compound 103]	+++ (+++ = pIC50 ≥6.00)	+ (+ = pIC50 4.00-4.99)	++ (++ = pIC50 5.00-5.99)	+− (+− = pIC50 <4.00)
CC(=O)N1CC=C(c2c[nH]c3ccc(F)cc23)CC1 [Compound 86]	++ (++ = pIC50 5.00-5.99)	+ (+ = pIC50 4.00-4.99)	+++ (+++ = pIC50 ≥6.00)	+− (+− = pIC50 <4.00)
CCCS(=O)(=O)N1CC=C(c2c[nH]c3cc(F)ccc23)CC1 [Compound 7]	+++ (+++ = pIC50 ≥6.00)	+ (+ = pIC50 4.00-4.99)	++ (++ = pIC50 5.00-5.99)	+− (+− = pIC50 <4.00)

— patent US9931347B2, “Pharmaceutical compound” (IOmet Pharma Ltd., priority 2013, dated 2018)
